This is an account of results in patent US20160361398A1, “METHOD FOR THE TREATMENT OF MULTIPLE SCLEROSIS” (Vereniging voor Christelijk Wetenschappe Onderwijs, priority 2015, published 2016).

No end group written: not given here.

The test system of experiment [1] is experimental autoimmune encephalomyelitis. To be noted: intravenous administration; cited from earlier work.
Experiment [2] concerns MOG-reactive effector T cells from EAE mice. The experiment in a line: EAE splenocytes re-stimulated ex vivo with antigen-loaded DCs: IFN-γ production. It is filed as cell-based, mouse. To be noted: 4 days of culture; EAE mice with different scoring; FIG. 1G. Here is the method:
To determine the functionality of the MOG-reactive effector cells, IFN-γ production was measured (FIG. 1G).
(§1) Splenocytes from mice that suffered EAE were re-stimulated ex-vivo with DCs loaded with either non-sialylated MOG or α-2-6-Sia-MOG35-55 and as a control, DC with no antigen. DC and T cells were cultured as described in Example 2, as described above, for 4 days. 3H and IFN-γ was determined as described above.
(§2) Cytokine production by T cells and DCs was assessed by cytometric bead arrays using the CBA Th1/2/17 kit and mouse inflammation kit, respectively (BD Biosciences), or by ELISA using specific antibody pairs (eBiosciences) following the manufacturers' instructions.

In experiment [3] the test system is Th1 and Th17 cells generated from 2D2 CD4 T cells. The experiment is described as follows: Inhibition of effector Th1 and Th17 cells generated from 2D2 T cells, re-stimulated with pulsed DCs. It is filed as cell-based, mouse. Conditions: supernatant after 24 hours; for secretion of effector cytokine by Th1 cells (IFN-gamma): FIG. 1E left panel; for secretion of effector cytokine by Th17 cells (IL-17): FIG. 1E right panel. An excerpt: As stated hereinbefore, Th1 and Th17 are the effector CD4T cells that cause inflammation in MS. […] This was not observed when these effector cells were co-cultured with DCs loaded with non-sialylated MOG 35-55 (FIG. 1E). Thus, it was concluded that T cells generated in the presence of DCs exposed to α-2,6-Sia-MOG35-55, indeed were functional in that they were able to suppress MOG-specific effector T cells and, therefore, able to dampen ongoing inflammation. It follows that the disclosure may be applied for treating ongoing inflammation, such as the inflammation observed in MS patients, when, at the peak of the disease, auto-reactive, myelin-specific CD4^+ and CD8^+ T cells are involved in the demyelination of the neurons.
(§3) Antigen-specific nave CD4+CD62LhiCD25− T cells were purified from spleen and LN cell suspensions obtained from 2D2 mice using the Dynal mouse CD4+ CD62L+ T cell isolation kit II mouse (Miltenyi Biotec, Bergisch Gladbach, Germany) or by sorting on a MoFlo (DakoCytomation, Glostrup, Denmark). The resulting naïve CD4+ CD62L+CD25− T cell populations were typically 95% pure as assessed by flow cytometry. Naïve CD4+ T cells (5×10^4) were added to wells containing DCs (1×10^4) that were pulsed with indicated concentrations of antigen modified with a sialylated oligosaccharide or native antigen 3 hours prior. After 2 days, 10 U/ml recombinant mouse IL-2 (Invitrogen, Bleijswijk, The Netherlands) was added. T-cell polarization was evaluated on day 6 by intra-cellular staining for Foxp3 and IFN-γ following 5 hours restimulation with phorbol 12-myristate 13-acetate (PMA; […])/ionomycin (Sigma; 500 ng/ml) in the presence of Brefeldin A (Sigma; 5 μg/ml). For inhibition of effector Th1 and Th17 cells, Naïve 2D2 T cells were converted in Th1 or Th17 cells by culturing; one week later, effector T cells re-stimulated with DC pulsed with MOG or Sialylated MOG. After 24 hours, the supernatant was harvested for presence of IFN-γ or IL 17 as measure of activity of Th1 and Th17 effector cells, respectively.

Experiment [4] concerns MOG-specific effector CD4 T cells from EAE splenocytes. The experiment is described as follows: EAE splenocytes re-stimulated ex vivo with antigen-loaded DCs: [3H]thymidine incorporation. Conditions: after 4 days of culture; EAE scores 1, 2 and 3; FIG. 1F. It is filed as cell-based, mouse. How it is done: To examine this even further, testing was performed to determine whether DCs exposed to α-2,6-Sia-MOG35-55 were able to inhibit MOG-specific effector T cells that were obtained from splenocytes from mice suffering from experimental autoimmune encephalomyelitis (EAE). To this effect, CD4 effector T cells were harvested from splenocytes of mice at various EAE clinical scores, representing different stages of effector T cell number and activity, wherein score 1 is the onset of disease and score 2 and 3 are the more severe phases of the disease.
Testing was performed to determine whether DCs ex vivo loaded with Sia-MOG could inhibit the proliferation of the MOG-specific effector CD4 T cells that were obtained from EAE mice.
DCs loaded with α-2-6-Sia-MOG35-55 or non-sialylated MOG35-55 were cultured with EAE splenocytes and, after 4 days of culture, [3H]thymidine incorporation was determined as a measure of proliferation and division of CD4 T cells (FIG. 1 F).
as §1

Experiment [5] concerns MOG-responsive CD4+ T cells (2D2 T cells). The experiment in a line: T helper differentiation: antigen-pulsed DCs co-cultured with naive 2D2 CD4+ T cells, intracellular staining for Foxp3 and IFN-γ. To be noted: cultured six days with 2D2 T cells; for induction of suppressive Foxp3+CD4+ T cells: FIG. 1A; for CD4+ IFN-γ+ MOG effector T cells: FIG. 1B. It is filed as cell-based, mouse.
Text: For that purpose, DC were pulsed with α-2-6-Sia-MOG35-55 and a non-sialylated MOG 35-55 peptide as a control, and cultured for six days with MOG-responsive CD4^+ T cells (2D2 T cells (Bettelli et al., J. Exp. Med., 2003).
as §3

Experiment [6] deals with MOG-specific CD4+ (2D2) T-cells. The experiment is described as follows: IFN-γ in culture supernatants of DC / 2D2 T-cell co-cultures. It is filed as cell-based, mouse. Conditions: 2D2 T cells primed by antigen-loaded DCs; FIG. 1C. Here is the method:
as §3, with “For inhibition of effector Th1 and Th17 cells, Naïve 2D2 T cells were converted in Th1 or Th17 cells by culturing; one week later, effector T cells re-stimulated with DC pulsed with MOG or Sialylated MOG. After 24 hours, the supernatant was harvested for presence of IFN-γ or IL 17 as measure of activity of Th1 and Th17 effector cells, respectively.” left out
as §2

Experiment [7] concerns MOG-specific CD4+ T cells. The experiment in a line: qRT-PCR of MOG-specific CD4+ T cells isolated on day 6 of co-culture with pulsed DCs. It is filed as cell-based, mouse. To be noted: for Foxp3 mRNA level (qRT-PCR, normalized to GAPDH): FIG. 1D right panel. How it is done:
FIG. 1D: (Left panel) Expression of T-bet, which is a measure for IFN-γ-producing effector CD4 T cells (Th1). (Right panel) Foxp3 mRNA, which is a measure for Treg cells that suppress, were determined using qRT-PCR and subsequently normalized to housekeeping gene GAPDH, which is equal under all conditions.

Experiment [8] relates to naive OVA-specific CD4+ T cells (OT-II). The experiment in a line: Antigen specificity: loaded DCs challenged with OVA, co-cultured with OT-II cells, Foxp3+ CD4+ by flow cytometry. It is filed as cell-based, mouse. Conditions: for tolerogenic cells (Foxp3+ CD4+ T cells) in a population of OT-II cells: loaded DCs subsequently challenged with OVA. How it is done:
(§4) For that purpose, dendritic cells were loaded with sia-OVA and subsequently challenged in the presence of specific CD4+ T cells with either OVA or with a myelin oligodendrocyte glycoprotein peptide (MOG 35-55).
(§5) The thus-loaded dendritic cells were then co-cultured with naive MOG-specific CD4+ T cells (called 2D2) in the presence of MOG 35-55 or with naive OVA-specific CD4+ T cells (called OT-II) in the presence of ovalbumin (OVA).
(§6) Subsequently, it was determined whether sia-OVA-loaded dendritic cells were able to induce tolerogenic T cells in an antigen-specific manner. This was done by determining the percentage of Foxp3+ CD4+ T cells by flow cytometry.
(A flow cytometer gives signals particle by particle.)

Experiment [9] has as its system naive MOG-specific CD4+ T cells (2D2). The experiment is described as follows: Antigen specificity: sia-OVA-loaded DCs challenged with MOG 35-55, co-cultured with 2D2 cells, Foxp3+ CD4+ by flow cytometry. It is filed as cell-based, mouse. To be noted: loaded DCs subsequently challenged with MOG 35-55. Here is the method:
as §4, §5, §6

Consider “MEVGWYRPPFSRVVHLYRNGK [non-sialylated MOG35-55, reference compound]”, for which the “effect on experimental autoimmune encephalomyelitis” value in [1] is “suppresses”. Further, in [2], the “IFN-γ production of MOG-reactive effector cells” value is listed as “enhance”. In addition, in [3], the “secretion of effector cytokine by Th1 cells (IFN-gamma)” value is reported as “not observed” and the “secretion of effector cytokine by Th17 cells (IL-17)” value was “not observed”. In addition, in experiment [4], the “proliferation of MOG-specific CD4 T cells ([3H]thymidine incorporation)” value is on record as “stimulate the proliferation”. Also, in experiment [5], the “induction of suppressive Foxp3+CD4+ T cells” value was “not induced” and the “CD4+ IFN-γ+ MOG effector T cells” value was 3.5%. Moreover, in experiment [6], the “secreted IFN-γ in culture supernatants” value is recorded as “significant amounts”. For the same substance, the “T-bet mRNA level (qRT-PCR, normalized to GAPDH)” value in [7] (FIG. 1D left panel) is reported as “higher mRNA levels”. Besides, in [7], the “Foxp3 mRNA level (qRT-PCR, normalized to GAPDH)” value is listed as “hardly expressed”.
In the case of “OVA: ovalbumin, control antigen [reference compound]”, in [8], the “tolerogenic cells (Foxp3+ CD4+ T cells) in a population of OT-II cells” value is on record as “did not induce tolerogenic cells above background levels”.
For the substance “sia-OVA: sia-2,3 and 2,6-conjugated ovalbumin”, the “tolerogenic cells (Foxp3+ CD4+ T cells) in a population of 2D2 cells” value in experiment [9] is on record as “did not induce tolerogenic cells above background levels”. The “tolerogenic cells (Foxp3+ CD4+ T cells) in a population of OT-II cells” value in experiment [8] is on record as “about 10%”.
For the substance “α-2-6-Sia-MOG35-55: MOG 35-55 peptide with N-terminal cysteine covalently attached via MPBH linker to 6′-sialyl-N-acetyllactosamine (Neu5Ac(α)2-6Gal(β)1-4GlcNAc) (GPGYPIRALVGDEAELPCRIS; not fully specified (N-terminus); also: N-terminal Cys linked via MPBH to 6'-sialyl-LacNAc (Neu5Ac(α)2-6Gal(β)1-4GlcNAc); UniProt Q61885 35-55, looked up, fragment)”, in experiment [2], the “IFN-γ production of MOG-reactive effector cells” value is reported as “suppressed”. In addition, in experiment [3], the “secretion of effector cytokine by Th1 cells (IFN-gamma)” value was “significantly reduced” and the “secretion of effector cytokine by Th17 cells (IL-17)” value was “significantly reduced”. The “proliferation of MOG-specific CD4 T cells ([3H]thymidine incorporation)” value in [4] was “clear reduction of proliferation”. Further, in experiment [5], the “induction of suppressive Foxp3+CD4+ T cells” value is on record as “majority of the CD4 T cells co-express Foxp3” and the “CD4+ IFN-γ+ MOG effector T cells” value worked out at 0.3%. Further, the “secreted IFN-γ in culture supernatants” value in experiment [6] is given as “reduction”. For the same substance, the “Foxp3 mRNA level (qRT-PCR, normalized to GAPDH)” value in [7] is given as “high levels”.
“α-2-6-Sia-OVA: OVA coupled to 6′-Sialyl-N-acetyllactosamine (6′-SLN)”: in experiment [8] (DCs exposed to the antigen), the “immune tolerance against OVA” value was “capable of inducing immune tolerance against OVA”.
